Laboratory results as given in patent US20030125337A1, “Inhibitors of multidrug transporters” (priority 1998, published 2003).
Values after ≈ are worked out from the molar mass of the structure shown. Read-outs that look alike come from different tables or passages of the source.

Key:
HeLa cell line = assay: Toxicity on HeLa cell line, Cell Titer 96 AQueous MTS-based assay; set-up: species or system human; conditions: for Selectivity Index (Toxicity HeLa/Effectivity): HeLa IC50 / S. aureus effectivity IC50; for IC50: Homo sapiens, 72 h, HeLa, read-out: Toxicity HeLa IC50
Experimental: Here the inventors proposed to test the toxicity of the identified lead compounds on several human cell lines. To date, the inventors have determined the IC50 of the lead compounds for the HeLa cell line, the results of which are presented in Table 6. The toxicity of the compounds at concentrations ranging from 0.7 μg/ml to 100 μμg/ml was determined in a 96 well plate by adding the compounds to cells 24 h after seeding at a density of 10^4 per well. After incubation with the compounds for 3 days the effect on cell growth was determined using the Cell Titer 96 AQueous MTS-based assay (Promega, Madison, Wis.).

S. aureus strain SA1199B = assay: Checkerboard synergy testing of inhibitors with ciprofloxacin, S. aureus SA1199B; format: cell-based; conditions: combination with ciprofloxacin
Experimental: (§1) Synergy testing was performed with the strain NA by checkerboard titration in microtiter plates using two-fold serial broth microdilution (Eliopoulus and Moellering Jr., 1996). […] Wells were assessed visually for growth after an 18 h incubation period. The Fractional Inhibitory Concentration (FIC) was calculated for each inhibitor and ethidium combination. The following formulae were used to calculate the FIC index: [drawing 43]
(§2) The inventors have quantitated the effects of the combination of the NorA inhibitors with ciprofloxacin, currently the most widely used fluoroquinolone and the second most prescribed antibiotic. Synergy testing was performed by checkerboard titration as described above for ethidium. […] All five compounds acted in a synergistic manner with ciprofloxacin, having FIC indices <0.5 (see Table 4). The inventors concluded that, similarly to their effects on the bacteriotoxicity of ethidium, each of the tested NorA inhibitors promotes the bacteriotoxicity of ciprofloxacin in a synergistic manner.

NA strain = assay: Checkerboard synergy testing of inhibitors with ciprofloxacin, NA strain; format: cell-based, B. subtilis; conditions: combination with ciprofloxacin
Experimental: as §1, §2

S. aureus (SA1199B) = assay: Minimal inhibitor concentration decreasing the ciprofloxacin MIC two fold, S. aureus SA1199B; format: cell-based; conditions: Staphylococcus aureus, read-out: Effectivity IC50* S. Aureus
[1] = system: wild type S. aureus SA1199; format: cell-based; conditions: INF inhibitors 5 μg/ml, reserpine 20 μg/ml; for Frequency of emergence of variants resistant to two fold the MIC of ciprofloxacin, Spontaneous: SA1199, ciprofloxacin 1 μg/ml, 48 h; for Frequency of emergence of variants resistant to two fold the MIC of ciprofloxacin, Mutagenized: SA1199 mutagenized with ethylmethane sulfonate; for Fold inhibition of emergence of resistance: ciprofloxacin resistance, SA1199
Experimental: The effect of the inhibitors on the rate of emergence of in vitro selected single-step ciprofloxacin resistant mutants of wild type S. aureus SA1199 (Kaatz et al., 1990) was determined.
Ciprofloxacin resistance in first step in vitro selected mutants of S. aureus is predominantly due to specific point mutations in the targets of this drug, topoisomerase IV and gyrase (Cambau and Gutman, 1993; Ferrero et al., 1994).

strain NA = assay: Checkerboard synergy testing of inhibitors with ethidium, strain NA; format: cell-based, B. subtilis; conditions: for FIC index: combination with ethidium, strain NA, 18 h, synergy = FIC index <0.5
Experimental: as §1
Synergy was defined as an FIC index of <0.5.

S. pneumoniae (SPC2A) = assay: Minimal inhibitor concentration decreasing the ciprofloxacin MIC two fold, S. pneumoniae SPC2A; format: cell-based; conditions: Streptococcus pneumoniae, read-out: IC50 S. Pneumoniae
[2] = system: most Gram negative microorganisms; conditions: cited from earlier work
[3] = in vivo; cited from earlier work
[4] = system: most (≧90%) strains of the following microorganisms (Acinetobacter Iwoffi ... Yersinia enterocolitica); conditions: most (≧90%) strains of listed microorganisms; cited from earlier work
Streptococcus pneumoniae = conditions: cited from earlier work
NorA = biological target: T1, NorA (Staphylococcus aureus, UniProt P0A0J7); assay: Screen of DiverSet library for reversing the resistance of B. subtilis strain NA to the NorA substrate ethidium bromide; format: cell-based; conditions: ranking or words
T1 construct: expressed in transfected cells; host or cells: Bacillus subtilis strain NA
T1 sequence (P0A0J7 whole entry): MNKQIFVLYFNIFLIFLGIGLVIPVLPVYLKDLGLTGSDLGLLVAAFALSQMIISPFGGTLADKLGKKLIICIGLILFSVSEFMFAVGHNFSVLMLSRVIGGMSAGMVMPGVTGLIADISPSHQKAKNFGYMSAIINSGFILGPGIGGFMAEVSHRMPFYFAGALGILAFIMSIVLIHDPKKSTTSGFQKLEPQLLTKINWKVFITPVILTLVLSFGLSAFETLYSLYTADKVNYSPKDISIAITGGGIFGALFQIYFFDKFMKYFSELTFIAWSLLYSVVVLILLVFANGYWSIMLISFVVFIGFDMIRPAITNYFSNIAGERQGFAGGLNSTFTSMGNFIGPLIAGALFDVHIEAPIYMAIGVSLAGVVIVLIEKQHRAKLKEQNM
Experimental: One library for the compounds identified in the present invention is DiverSet™ (ChemBridge Corp., Glenview, Ill.) The screening of this library consisting of 9,600 compounds, has been completed. The chemical library was screened for compounds effective, at concentrations of 20 μg/ml or less, in reversing the resistance of a specially created B. subtilis strain NA to the NorA substrate ethidium bromide. Although the present invention employed NorA as the multidrug transporter in the screening assays it will be understood by one of skill in the art that the compounds identified herein will likely have applicability to other multidrug transporters.
In an exemplary assay, in order to identify a candidate substance as an inhibitor of NorA, the B. subtilis strain NA may be used. […]
The DiverSet™ library of chemical compounds was screened for compounds effective, at concentrations of 20 μg/ml or less, in reversing the resistance of a specially created B. subtilis strain NA to the NorA substrate ethidium bromide. […] These three classes of compounds were evaluated using the activity data provided and the CoMFA fields generated to see if a 3D-QSAR relationship was present.

[5] = system: most strains of certain other organisms (Gram negative aerobes); conditions: most strains of listed Gram negative aerobes; cited from earlier work
[6] = system: most strains of the following organisms (Staphylococcus aureus, Staphylococcus epidermidis, various Gram negative bacteria); conditions: most strains of listed organisms; cited from earlier work
[7] = system: Gram-negative and Gram-positive organisms; conditions: generally, except staphylococci; cited from earlier work
[8] = SPC2A, minimal concentration required to decrease the MIC for ciprofloxacin by two fold, N.A. = not active at 5 μg/ml

| Compound | Selectivity Index (Toxicity HeLa/Effectivity) (HeLa cell line) | IC50 (HeLa cell line; 3 days, MTS) | FIC index SA1199B (S. aureus strain SA1199B) | FIC index NA (NA strain) | IC50 (S. aureus (SA1199B)) | Frequency of emergence of variants resistant to two fold the MIC of ciprofloxacin, Spontaneous [1] | Frequency of emergence of variants resistant to two fold the MIC of ciprofloxacin, Mutagenized [1] | Fold inhibition of emergence of resistance [1] | FIC index (strain NA) | also measured |
| --- | --- | --- | --- | --- | --- | --- | --- | --- | --- | --- |
| O=[N+]([O-])c1ccc2[nH]c(-c3ccccc3)cc2c1 [INF 55] | 27 | 40 µg/mL (≈ 168 µM) | 0.25 | 0.25 | 1.5 µg/mL (≈ 6.3 µM) | <5 × 10^−11 | <2.5 × 10^−10 | >50 | 0.08 | IC50 (S. pneumoniae (SPC2A); [8]): 5 µg/mL (≈ 21 µM) |
| O=C(/C=C/c1ccccc1)Nc1cccc(/C=C/C(=O)c2ccccc2)c1 [INF 240] | 2.5 | 2 µg/mL (≈ 5.66 µM) | 0.28 | 0.12 | 0.8 µg/mL (≈ 2.26 µM) | <5 × 10^−11 | <2.5 × 10^−10 | >50 | 0.16 | – |
| COc1ccccc1NC(=O)Nc1ccc2ccccc2c1 [INF 271] | 12 | 18 µg/mL (≈ 61.6 µM) | 0.18 | 0.12 | 1.5 µg/mL (≈ 5.13 µM) | <5 × 10^−11 | <2.5 × 10^−10 | >50 | 0.07 | IC50 (S. pneumoniae (SPC2A); [8]): 2.5 µg/mL (≈ 8.55 µM) |
| CC1(C)CC(=O)C2=C(C1)c1c(ccc3ccccc13)NC2c1cc(Br)ccc1O (stereo not shown) [INF 277] | 6 | – | 0.28 | 0.15 | 0.8 µg/mL (≈ 1.78 µM) | <5 × 10^−11 | <2.5 × 10^−10 | >50 | 0.09 | IC50 (HeLa cell line): 5 µg/mL (≈ 11.2 µM); IC50 (S. pneumoniae (SPC2A)): 5 µg/mL (≈ 11.2 µM) |
| O=c1nc(SCc2ccccc2)[nH]c2c1[C@H](c1ccccc1)c1ccccc1O2 [INF 392] | 450 | – | 0.15 | 0.28 | 0.1 µg/mL (≈ 0.251 µM) | 5 × 10^−11 | 1 × 10^−9 | 25 | 0.14 | IC50 (HeLa cell line): 45 µg/mL (≈ 113 µM); IC50 (S. pneumoniae (SPC2A)): 2.5 µg/mL (≈ 6.27 µM) |
| O=C(O)c1cn(C2CC2)c2cc(N3CCNCC3)c(F)cc2c1=O [ciprofloxacin] | – | – | – | – | – | – | – | – | – | MIC90 [2]: ~0.1 µg/mL (≈ 0.302 µM); achievable tissue concentration [3]: 4 µg/mL; in vitro minimal inhibitory concentrations (MICs) [4]: ≤ 1 µg/mL; MIC90 (Streptococcus pneumoniae): 1 to 2 µg/mL |
| O=c1nc(SCc2ccccc2)[nH]c(O)c1C(c1ccccc1)c1ccccc1 [compound 41] | – | – | – | – | – | – | – | – | – | relative inhibitory activity in the initial screening (NorA): most active lead compound in this category |
| CCn1cc(C(=O)O)c(=O)c2cc(F)c(N3CCNCC3)nc21 [enoxacin] | – | – | – | – | – | – | – | – | – | in vitro minimum inhibitory concentrations (MICs) [5]: ≤ 2.0 µg/mL |
| CC[n+]1c(-c2ccccc2)c2cc(N)ccc2c2ccc(N)cc21 [ethidium, ethidium bromide, reference compound] | – | – | – | – | – | – | – | – | – | MIC (strain NA; Bacillus subtilis, read-out: MIC for the strain NA): 40 µg/mL |
| CCn1cc(C(=O)O)c(=O)c2cc(F)c(N3CCNC(C)C3)c(F)c21 (stereo not shown) [lomefloxacin] | – | – | – | – | – | – | – | – | – | in vitro MICs [6]: ≤ 2 µg/mL; factor by which MBC exceeds MIC [7]: ≤ 2 |
